Calls of active or inactive are those of the source. The rule behind the calls is not given here.
Key:
[1] = NanoBRET assay (AKT1); conditions: Homo sapiens
[2] = molecular target: Serine/threonine-protein kinase mTOR (Homo sapiens) (UniProt P42345); experiment: FRAP1 (mTOR) SelectScreen Kinase panel (LifeTechnologies); conditions: Compound concentration 1.0 uM
[3] = molecular target: Mast/stem cell growth factor receptor Kit (Homo sapiens) (UniProt P10721); experiment: KIT SelectScreen Kinase panel (LifeTechnologies); conditions: Compound concentration 1.0 uM
Sequence of Mast/stem cell growth factor receptor Kit (Homo sapiens) (P10721 whole entry): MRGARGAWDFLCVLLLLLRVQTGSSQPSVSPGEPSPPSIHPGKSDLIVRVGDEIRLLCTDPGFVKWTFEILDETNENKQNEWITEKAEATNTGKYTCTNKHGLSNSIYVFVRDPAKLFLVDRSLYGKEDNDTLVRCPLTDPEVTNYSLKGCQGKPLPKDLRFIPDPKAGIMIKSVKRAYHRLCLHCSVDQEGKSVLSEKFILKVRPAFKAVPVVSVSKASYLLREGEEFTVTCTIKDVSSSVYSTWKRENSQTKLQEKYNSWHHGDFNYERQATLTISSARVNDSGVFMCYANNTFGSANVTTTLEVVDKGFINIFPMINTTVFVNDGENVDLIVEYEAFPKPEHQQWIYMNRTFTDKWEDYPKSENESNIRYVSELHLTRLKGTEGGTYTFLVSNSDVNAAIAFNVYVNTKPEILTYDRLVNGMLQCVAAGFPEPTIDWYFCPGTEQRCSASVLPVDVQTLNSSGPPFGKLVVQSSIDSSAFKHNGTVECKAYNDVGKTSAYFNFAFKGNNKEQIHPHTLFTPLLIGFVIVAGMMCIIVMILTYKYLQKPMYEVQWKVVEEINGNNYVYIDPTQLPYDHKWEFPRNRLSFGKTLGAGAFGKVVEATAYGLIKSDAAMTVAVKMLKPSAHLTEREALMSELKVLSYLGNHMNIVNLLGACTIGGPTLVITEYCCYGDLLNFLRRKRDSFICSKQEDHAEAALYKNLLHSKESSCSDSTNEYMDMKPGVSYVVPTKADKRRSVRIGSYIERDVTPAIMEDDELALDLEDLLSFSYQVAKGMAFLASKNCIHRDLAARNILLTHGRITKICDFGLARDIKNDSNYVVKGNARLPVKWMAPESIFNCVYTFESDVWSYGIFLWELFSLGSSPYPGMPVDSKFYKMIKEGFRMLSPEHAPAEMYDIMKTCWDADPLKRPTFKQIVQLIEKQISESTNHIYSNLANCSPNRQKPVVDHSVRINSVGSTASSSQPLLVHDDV

[4] = molecular target: Mitogen-activated protein kinase 14 (Homo sapiens) (UniProt Q16539); experiment: MAPK14 (p38 alpha) Direct SelectScreen Kinase panel (LifeTechnologies); conditions: Compound concentration 1.0 uM
Sequence of Mitogen-activated protein kinase 14 (Homo sapiens) (Q16539 whole entry): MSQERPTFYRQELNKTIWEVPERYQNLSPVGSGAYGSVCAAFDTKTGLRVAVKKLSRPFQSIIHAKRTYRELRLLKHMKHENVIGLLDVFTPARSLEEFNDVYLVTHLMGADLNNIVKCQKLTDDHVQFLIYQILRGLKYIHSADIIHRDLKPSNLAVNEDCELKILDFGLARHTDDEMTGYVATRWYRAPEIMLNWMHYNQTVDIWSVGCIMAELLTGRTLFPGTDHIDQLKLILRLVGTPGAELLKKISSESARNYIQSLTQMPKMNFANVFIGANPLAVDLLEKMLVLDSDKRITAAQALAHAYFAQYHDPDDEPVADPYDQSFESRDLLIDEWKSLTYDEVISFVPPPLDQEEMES

[5] = molecular target: Protein kinase C beta type (Homo sapiens) (UniProt P05771); experiment: PRKCB2 (PKC beta II) SelectScreen Kinase panel (LifeTechnologies); conditions: Compound concentration 1.0 uM
Sequence of Protein kinase C beta type (Homo sapiens) (P05771 2-671 limits assumed): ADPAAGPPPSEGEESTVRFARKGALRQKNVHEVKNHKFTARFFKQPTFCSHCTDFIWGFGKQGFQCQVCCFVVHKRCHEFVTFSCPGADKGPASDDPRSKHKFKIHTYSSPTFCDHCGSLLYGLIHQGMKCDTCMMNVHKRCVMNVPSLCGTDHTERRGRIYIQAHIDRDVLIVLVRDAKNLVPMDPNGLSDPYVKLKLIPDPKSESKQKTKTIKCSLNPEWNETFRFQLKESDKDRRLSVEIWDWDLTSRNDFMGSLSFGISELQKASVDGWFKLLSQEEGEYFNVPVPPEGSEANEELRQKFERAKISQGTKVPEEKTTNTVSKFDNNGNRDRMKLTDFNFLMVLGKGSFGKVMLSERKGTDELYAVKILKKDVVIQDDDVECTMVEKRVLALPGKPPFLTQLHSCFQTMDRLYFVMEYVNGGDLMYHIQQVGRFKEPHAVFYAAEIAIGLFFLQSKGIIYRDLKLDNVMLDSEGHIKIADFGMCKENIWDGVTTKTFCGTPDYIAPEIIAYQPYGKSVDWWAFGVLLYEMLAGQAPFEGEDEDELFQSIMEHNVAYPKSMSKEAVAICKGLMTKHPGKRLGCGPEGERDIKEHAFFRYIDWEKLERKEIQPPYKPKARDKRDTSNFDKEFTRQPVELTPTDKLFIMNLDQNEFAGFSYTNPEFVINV

[6] = molecular target: Ribosomal protein S6 kinase alpha-1 (Homo sapiens) (UniProt Q15418); experiment: RPS6KA1 (RSK1) SelectScreen Kinase panel (LifeTechnologies); conditions: Compound concentration 1.0 uM
Sequence of Ribosomal protein S6 kinase alpha-1 (Homo sapiens) (Q15418 whole entry): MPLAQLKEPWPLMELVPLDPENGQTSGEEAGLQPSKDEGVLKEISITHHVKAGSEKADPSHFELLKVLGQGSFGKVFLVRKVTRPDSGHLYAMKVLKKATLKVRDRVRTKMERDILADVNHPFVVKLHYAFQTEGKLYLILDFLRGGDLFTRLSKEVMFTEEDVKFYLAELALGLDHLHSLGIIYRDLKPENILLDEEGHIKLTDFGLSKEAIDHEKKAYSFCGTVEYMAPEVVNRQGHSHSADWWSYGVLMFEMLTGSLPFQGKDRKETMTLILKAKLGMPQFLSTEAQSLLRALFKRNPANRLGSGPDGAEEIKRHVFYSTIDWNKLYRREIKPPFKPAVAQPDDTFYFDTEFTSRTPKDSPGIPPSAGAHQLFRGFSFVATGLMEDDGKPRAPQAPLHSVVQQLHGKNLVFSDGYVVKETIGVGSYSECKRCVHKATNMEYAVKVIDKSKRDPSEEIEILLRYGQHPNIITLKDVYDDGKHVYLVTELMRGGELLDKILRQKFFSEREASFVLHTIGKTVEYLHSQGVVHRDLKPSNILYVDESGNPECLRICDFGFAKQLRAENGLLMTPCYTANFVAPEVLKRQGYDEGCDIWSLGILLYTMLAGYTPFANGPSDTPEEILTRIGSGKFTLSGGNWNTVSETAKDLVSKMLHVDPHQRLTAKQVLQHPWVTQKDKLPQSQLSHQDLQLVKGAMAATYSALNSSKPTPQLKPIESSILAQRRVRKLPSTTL

[7] = molecular target: 5-hydroxytryptamine receptor 1A (Homo sapiens) (UniProt P08908); conditions: Compound concentration 10.0 uM
Sequence of 5-hydroxytryptamine receptor 1A (Homo sapiens) (P08908 whole entry): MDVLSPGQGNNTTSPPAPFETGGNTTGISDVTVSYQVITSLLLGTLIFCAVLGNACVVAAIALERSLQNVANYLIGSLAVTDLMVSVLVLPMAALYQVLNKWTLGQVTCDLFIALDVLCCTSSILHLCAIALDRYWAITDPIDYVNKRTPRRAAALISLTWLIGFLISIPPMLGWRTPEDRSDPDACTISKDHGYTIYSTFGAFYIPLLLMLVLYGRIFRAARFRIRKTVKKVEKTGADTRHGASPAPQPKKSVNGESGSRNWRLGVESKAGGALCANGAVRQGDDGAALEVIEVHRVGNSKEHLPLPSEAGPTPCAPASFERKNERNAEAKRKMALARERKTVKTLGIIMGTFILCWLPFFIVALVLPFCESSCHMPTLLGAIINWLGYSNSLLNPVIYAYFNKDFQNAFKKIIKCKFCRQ

[8] = molecular target: D(3) dopamine receptor (Homo sapiens) (UniProt P35462); conditions: Compound concentration 10.0 uM
Sequence of D(3) dopamine receptor (Homo sapiens) (P35462 whole entry): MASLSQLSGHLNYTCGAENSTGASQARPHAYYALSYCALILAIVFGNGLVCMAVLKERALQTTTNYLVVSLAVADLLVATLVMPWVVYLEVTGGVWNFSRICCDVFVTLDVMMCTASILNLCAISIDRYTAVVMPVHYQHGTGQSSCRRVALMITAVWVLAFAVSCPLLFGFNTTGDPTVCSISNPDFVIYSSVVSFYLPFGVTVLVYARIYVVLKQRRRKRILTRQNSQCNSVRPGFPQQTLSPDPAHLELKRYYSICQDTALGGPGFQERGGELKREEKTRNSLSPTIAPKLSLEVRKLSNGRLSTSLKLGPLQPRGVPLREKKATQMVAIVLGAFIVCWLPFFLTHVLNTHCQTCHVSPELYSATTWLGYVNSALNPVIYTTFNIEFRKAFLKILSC

[9] = molecular target: D(4) dopamine receptor (Homo sapiens) (UniProt P21917); conditions: Compound concentration 10.0 uM
Sequence of D(4) dopamine receptor (Homo sapiens) (P21917 whole entry): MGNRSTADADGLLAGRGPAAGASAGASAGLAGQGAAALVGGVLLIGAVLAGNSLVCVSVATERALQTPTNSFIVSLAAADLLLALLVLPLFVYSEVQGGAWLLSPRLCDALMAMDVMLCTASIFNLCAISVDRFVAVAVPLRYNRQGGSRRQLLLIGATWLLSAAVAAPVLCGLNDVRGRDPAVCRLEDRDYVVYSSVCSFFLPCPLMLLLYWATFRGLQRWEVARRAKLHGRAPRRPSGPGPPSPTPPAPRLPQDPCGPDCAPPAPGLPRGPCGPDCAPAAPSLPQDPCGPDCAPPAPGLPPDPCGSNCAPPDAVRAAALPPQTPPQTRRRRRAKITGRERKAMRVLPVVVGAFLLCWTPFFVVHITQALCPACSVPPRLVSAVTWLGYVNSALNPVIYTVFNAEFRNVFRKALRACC

C=CC(=O)Nc1ccc2[nH]c(=O)n(C3CCN(Cc4ccc(-c5nc6cc[nH]c(=O)c6cc5-c5ccccc5)cc4)CC3)c2c1 [Borussertib]
EC50 [1]: 26 nM (active) | IC50 [1]: 21 nM (active) | inhibition [2]: -9% | inhibition [3]: 8% | inhibition [4]: -1% | inhibition [5]: 9% | inhibition [6]: 12% | inhibition [7]: 15% | inhibition [8]: 20.9% | inhibition [9]: 10%

Reference: ChEMBL document CHEMBL4800730 (2021)
